For one data set, the system named is RBCs. Kind of data set: Complement mediated lysis of RBCs coated with PEG-phospholipid. The data set is classed as cell-based, human. The following applies: ABO missmatched donors, vs non-treated controls, 37° C. 20 min. Here is the method:
In order to investigate if the PEG-phospholipid was able to protect against complement mediated lysis, RBCs were used from 13 different donors who were typed for Rh complex and ABO antigens. RBCs were isolated and preincubated with PEG-phospholipid at varying concentrations, free PEG or PBS as described above. Cells were then washed (and the supernatant stored for analysis) with PBS (800 g×5 min, RT) and incubated with human serum (where the complement system is active) for 20 minutes at 37° C. They were then spun down again (800 g×5 min) and the supernatant was collected for analysis of hemolysis. The RBCs were analyzed for complement fixation (cells were incubated for 10 min with a
FITC-labelled anti-C3c antibody). RBCs were resuspended with PBS (1 mL) for flow cytometry measurements. […] Post analysis processing was carried out in FlowJo (BD). The supernatant was analyzed on a variable wavelength detection plate reader, Synergy HTX, for the absorbance at 540 nm. RBCs, which were lysed via osmotic stress, were run in parallel as positive controls. The background absorbance at 540 nm from PBS containing no cells was subtracted and the difference in absorbance between cells coated with PEG-phospholipid or PBS was then calculated.

For data set [1], the system named is porcine kidney transplant, ischemia reperfusion injury.
Procedure: TAT was measured in both human and porcine plasma using an anti-human thrombin monoclonal antibody was used for capturing and an HRP-coupled anti-human antithrombin (AT) antibody was used for detection (Enzyme Research Laboratories, South Bend, IN, USA).
In addition, TNF, IL-1b, IL-6 and tissue factor (TF) were quantified in plasma by immunoassays using a GyroLab workstation (Gyros, Uppsala, Sweden), and the presence of these compounds, as well as IFNγ in biopsies (below) were verified by PCR.
Paraffin sections of porcine kidney tissue were cut (3-5 μm), deparaffinized in xylene and rehydrated with a graded series of ethanol and distilled water. For IHC staining a heat-induced antigen retrieval was performed by boiling the sections in sodium citric buffer (pH 6), the sections were blocked with 10% normal goat serum (Jackson Immunoresearch) before primary antibody incubation: anti-MAC (abcam ab66768); anti-C3b alpha chain (Bioss bs-4873R); anti-C4d (abcam ab64157), anti-C5aR (Acris AP06509PU-N), anti-HO1 (abcam ab52947), anti-CSE (abnova H00001491-M01), anti-Nitrotyrosine (Merck Millipore AB5411), anti-NOS2 (Santa Cruz sc-651), detection was performed by DAKO Real
Detection System alkaline phosphatase red (Dako). The sections were counterstained with Mayer's hematoxylin (Sigma #51275). Control staining was done with a nonspecific rabbit IgG (Dako #X0936). The slides were visualized using a Zeiss Axio Imager A1 microscope with a ×10 objective (100-fold magnification). Intensity of staining was quantified on multiple randomly selected 800,000 μm^2 sections using the AxioVision 4.8 software (Zeiss). Data are presented as mean densitometric sum red.
The subject of data set [2] is Rhesus factors D, C, c, E and e on erythrocytes. Kind of data set: Agglutination test and Rh phenotyping of coated erythrocytes. The data set is classed as cell-based. The settings on record: 2 mg/ml final, 30 min 37° C.; one O Rh+ and two A Rh+ blood samples; vs untreated control. On the procedure: Whole blood samples (one O, Rh+ blood sample and two A Rh+ blood samples) from the blood center were centrifuged in Eppendorf tubes in an Eppendorf 5810R centrifuge at 2500 rpm for 10 min at room temperature (20-25° C.) and the plasma was removed and discarded. The cell fractions were subject to three washing steps in 50 ml falcon tubes. Each washing step involved adding 45 ml phosphate buffered saline (PBS) to 1 ml cell fraction followed by centrifugation at 2500 rpm for 10 minutes at room temperature.
100 μl cell suspension was mixed with 900 μl PBS and 1000 μl PEG-phospholipid (4 mg/ml, polyethylene glycol-phospholipid with PEG of 5 kDa (PEG-phospholipid) in PBS, SUNBRIGHT® PP-050CN, N-(methylpolyoxyethylene oxycarbonyl)-1,2-dipalmitoyl-sn-glycero-3-phosphoethanolamine, sodium salt, NOF Corp., Japan) to coat the erythrocytes with 2 mg/ml PEG-phospholipid (final concentration) or 1000 μl PBS as control. The erythrocyte samples were incubated 30 min at 37° C. in an incubator under rotation in a POL-EKO laboratory incubator. The erythrocyte samples were washed three times with 2 ml PBS and centrifuged at 2500 rpm for 5 min at room temperature in a Heraeus Biofuge Pico centrifuge.
The washed erythrocyte samples were then subject to an agglutination test and Rh phenotyping. […]

The mark [3] stands for this setting: ANSM biopsies, electron microscopy, vs matched individual controls.
Setting [4] is: ANSM, 1, 60 and 360 min, treated vs non-treated kidneys.
The mark [5] stands for this setting: ANSM, 6 h observation, treated vs untreated kidneys.
[6] abbreviates: ANSM, treated vs untreated kidneys.

In the case of “N-(methylpolyoxyethylene oxycarbonyl)-1,2-dipalmitoyl-sn-glycero-3-phosphoethanolamine [PEG-phospholipid]”, the “complement-mediated RBC lysis” value in the data set on RBCs is on record as “reduced complement-mediated RBC lysis in a dose dependent manner”. In data set [1] (setting [3]), the “glomerular NETosis (renal NET deposition)” value was “marked decrease” and the “tubular NETosis (renal NET deposition)” value is reported as “marked decrease”. In addition, in data set [1] (setting [4]), the “HO-1 staining in biopsies” value is recorded as “No difference was found”, the “INOS staining in biopsies” value was “No difference was found” and the “nitrotyrosine staining in biopsies” value was “No difference was found”. Further, in data set [1] (setting [5]), the “C3a in renal vein blood” value was “substantially lower”, the “FXIla-C1INH in renal vein blood” value is listed as “substantially lower”, the “TAT in renal vein blood” value is on record as “substantially lower” and the “sC5b-9 in renal vein blood” value is listed as “substantially lower”. In data set [1] (ANSM, RT-PCR, vs controls), the “IL-1β mRNA expression in kidney biopsies” value is recorded as “lower”, the “IL-6 mRNA expression in kidney biopsies” value is listed as “lower”, the “TF mRNA expression in kidney biopsies” value is “lower” and the “TNF mRNA expression in kidney biopsies” value is recorded as “lower”. In addition, the “deposition of NETs in all locations (glomerular, tubular, vascular)” value in data set [1] (ANSM, n=6) was “highly significant reduction”. In data set [1] (setting [6]), the “binding of C3b in kidney biopsies” value is given as “significantly lower binding” and the “binding of C4d in kidney biopsies” value is recorded as “tendency of a lower binding”. Besides, in data set [1] (ANSM, vs controls), the “IL-1β plasma concentration in the renal vein” value is given as “lower”, the “IL-6 plasma concentration in the renal vein” value is “lower”, the “TF plasma concentration in the renal vein” value is on record as “lower” and the “TNF plasma concentration in the renal vein” value is recorded as “lower”. In addition, the “time within which fluorescence migrated from the glomeruli to the tubular system” value in data set [1] (pig, in vivo) is at most 6 h. The “agglutination of erythrocytes (Rhesus factor antigens)” value in data set [2] is recorded as “inhibited agglutination”.

For the origin of these results see patent US20250177448A1, “NEW USE OF PEG-PHOSPHOLIPID MOLECULES” (ICOAT MEDICAL AB, priority 2022, published 2025).
